# Legend:
# Test in all cases: Protein kinase inhibition assay
# CaMKIV(h) = CaMKIV(h) (Homo sapiens, UniProt Q16566); format: biochemical; conditions: read-out: percent residual activity of CaMKIV(h)
# Description: (§1) Certain compounds were tested for activity in protein kinase inhibition assays. All substrates were dissolved and diluted to working stocks in de-ionized water, apart from histone H1 (10× working stock in 20 mM MOPS pH 7.0), PDKtide (10× working stock in 50 mM Tris pH 7.0) ATF2 (which is typically stored at a 20× working stock in 50 mM Tris pH 7.5, 150 mM NaCl, 0.1 mM EGTA, 0.03% Brij-35, 50% glycerol, 1 mM benzamidine, 0.2 mM PMSF and 0.1% R-mercaptoethanol), KKLNRTLSFAEPG (SEQ ID NO:203) and RRRLSFAEPG (SEQ ID NO:204) (50 mM HEPES pH 7.4) and GGEEEEYFELVKKKK (SEQ ID NO:205) (20 mM MOPS pH 7.0). All kinases were pre-diluted to a 10× working concentration prior to addition into the assay. The composition of the dilution buffer for each kinase is detailed below.
# In a final reaction volume of 25 μl, CaMKIV (h) (5-10 mU) is incubated with 40 mM HEPES pH 7.4, 5 mM CaCl2, 30 μg/ml calmodulin, 30 μM KKLNRTLSVA (SEQ ID NO:212), 10 mM MgAcetate and [gamma-33P-ATP] (specific activity approx. 500 cpm/pmol, concentration as required). The reaction is initiated by the addition of the MgATP mix. After incubation for 40 minutes at room temperature, the reaction is stopped by the addition of 5 μl of a 3% phosphoric acid solution. […]
# CHK2(h) = CHK2(h) (Homo sapiens, UniProt O96017); format: biochemical; conditions: read-out: percent residual activity of CHK2(h)
# Description: as §1
# In a final reaction volume of 25 μl, CHK2 (h) (5-10 mU) is incubated with 8 mM MOPS pH 7.0, 0.2 mM EDTA, 200 μM […] (SEQ ID NO:213), 10 mM MgAcetate and [gamma-33P-ATP] (specific activity approx. 500 cpm/pmol, concentration as required). The reaction is initiated by the addition of the MgATP mix. After incubation for 40 minutes at room temperature, the reaction is stopped by the addition of 5 μl of a 3% phosphoric acid solution. 10 μl of the reaction is then spotted onto a P30 filtermat and washed three times for 5 minutes in 75 mM phosphoric acid and once in methanol prior to drying and scintillation counting.
# CDK1/cyclinB(h) = CDK1/cyclinB(h) (Homo sapiens, UniProt P06493); format: biochemical; conditions: read-out: percent residual activity of CDK1/cyclinB(h)
# Description: as §1
# In a final reaction volume of 25 μl, CDK1/cyclinB (h) (5-10 mU) is incubated with 8 mM MOPS pH 7.0, 0.2 mM EDTA, 0.1 mg/ml histone H1, 10 mM MgAcetate and [gamma-33P-ATP] (specific activity approx. 500 cpm/pmol, concentration as required). The reaction is initiated by the addition of the MgATP mix. After incubation for 40 minutes at room temperature, the reaction is stopped by the addition of 5 μl of a 3% phosphoric acid solution. 10 μl of the reaction is then spotted onto a P30 filtermat and washed three times for 5 minutes in 75 mM phosphoric acid and once in methanol prior to drying and scintillation counting.
# Arg(h) = Arg(h) (Homo sapiens, UniProt P42684); format: biochemical; conditions: read-out: percent residual activity of Arg(h)
# Description: as §1
# In a final reaction volume of 25 μl, Arg (h) (5-10 mU) is incubated with 8 mM MOPS pH 7.0, 0.2 mM EDTA, 50 μM EAIYAAPFAKKK (SEQ ID NO:206), 10 mM MgAcetate and [gamma-33P-ATP] (specific activity approx. 500 cpm/pmol, concentration as required). The reaction is initiated by the addition of the MgATP mix. After incubation for 40 minutes at room temperature, the reaction is stopped by the addition of 5 μl of a 3% phosphoric acid solution. 10 pi of the reaction is then spotted onto a P30 filtermat and washed three times for 5 minutes in 75 mM phosphoric acid and once in methanol prior to drying and scintillation counting.
# MKK4(m) = MKK4(m) (Mus musculus, UniProt P47809); format: biochemical; conditions: read-out: percent residual activity of MKK4(m)
# Description: as §1
# The reaction is initiated by the addition of the MGATP. After incubation for 40 minutes at room temperature, 5 μl of this incubation mix is used to initiate a JNK1α1 (h) assay, which is exactly as described on page 11 of this book except that ATF2 is replaced with 250 μM peptide.
# CK1(y) = format: biochemical, yeast; conditions: 2.5 μM
# Description: as §1
# In a final reaction volume of 25 μl, CK1 (y) (5-10 mU) is incubated with 8 mM MOPS pH 7.0, 0.2 mM EDTA, 200 μM KRRRALS(p)VASLPGL (SEQ ID NO:214), 10 mM MgAcetate and [gamma-33P-ATP] (specific activity approx. 500 cpm/pmol, concentration as required). The reaction is initiated by the addition of the MgATP mix. After incubation for 40 minutes at room temperature, the reaction is stopped by the addition of 5 μL of a 3% phosphoric acid solution. 10 μl of the reaction is then spotted onto a P30 filtermat and washed three times for 5 minutes in 75 mM phosphoric acid and once in methanol prior to drying and scintillation counting.
# PKCε(h) = PKCε(h) (Homo sapiens, UniProt Q02156); format: biochemical; conditions: read-out: percent residual activity of PKCε(h)
# Description: as §1
# In a final reaction volume of 25 μl, PKCε (h) (5-10 mU) is incubated with 20 mM HEPES pH 7.4, 0.03% Triton X-100, 0.1 mg/ml phosphatidylserine, 10 μg/ml diacylglycerol, 50 μM ERMRPRKRQGSVRRRV (SEQ ID NO:224), 10 mM MgAcetate and [gamma-33P-ATP] (specific activity approx. 500 cpm/pmol, concentration as required). The reaction is initiated by the addition of the MgATP mix. After incubation for 40 minutes at room temperature, the reaction is stopped by the addition of 5 pi of a 3% phosphoric acid solution. […]
# Arg(h), sequence (P42684 whole entry): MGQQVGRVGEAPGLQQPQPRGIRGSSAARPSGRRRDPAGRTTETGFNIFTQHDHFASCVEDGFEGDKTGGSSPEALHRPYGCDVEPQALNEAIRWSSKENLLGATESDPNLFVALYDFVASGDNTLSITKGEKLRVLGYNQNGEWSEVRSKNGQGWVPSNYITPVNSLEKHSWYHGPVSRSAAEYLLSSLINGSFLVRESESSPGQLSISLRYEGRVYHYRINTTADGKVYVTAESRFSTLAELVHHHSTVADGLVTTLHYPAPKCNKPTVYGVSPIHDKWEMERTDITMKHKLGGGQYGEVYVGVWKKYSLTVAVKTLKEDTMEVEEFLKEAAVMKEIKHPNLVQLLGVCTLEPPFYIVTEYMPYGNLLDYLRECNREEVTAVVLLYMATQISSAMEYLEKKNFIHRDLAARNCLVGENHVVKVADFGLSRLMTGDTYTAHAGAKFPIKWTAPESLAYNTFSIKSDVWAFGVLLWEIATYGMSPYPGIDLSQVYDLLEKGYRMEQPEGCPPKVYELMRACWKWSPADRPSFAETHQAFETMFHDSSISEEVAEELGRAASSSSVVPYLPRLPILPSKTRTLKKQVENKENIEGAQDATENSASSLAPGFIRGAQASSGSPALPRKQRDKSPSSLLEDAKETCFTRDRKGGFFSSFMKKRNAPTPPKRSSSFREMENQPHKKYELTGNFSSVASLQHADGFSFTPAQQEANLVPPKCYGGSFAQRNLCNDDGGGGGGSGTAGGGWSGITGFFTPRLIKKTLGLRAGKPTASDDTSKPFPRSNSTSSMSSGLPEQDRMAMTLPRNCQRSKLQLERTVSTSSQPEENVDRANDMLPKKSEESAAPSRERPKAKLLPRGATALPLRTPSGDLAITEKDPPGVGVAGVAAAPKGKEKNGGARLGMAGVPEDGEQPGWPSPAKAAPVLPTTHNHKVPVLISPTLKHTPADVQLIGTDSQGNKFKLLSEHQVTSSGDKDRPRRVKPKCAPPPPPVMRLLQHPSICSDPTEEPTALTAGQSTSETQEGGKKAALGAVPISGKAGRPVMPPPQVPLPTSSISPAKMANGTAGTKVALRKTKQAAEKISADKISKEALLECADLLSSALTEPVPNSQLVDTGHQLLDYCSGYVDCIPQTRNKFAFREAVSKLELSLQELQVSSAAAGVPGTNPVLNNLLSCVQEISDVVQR
# CHK2(h), sequence (O96017 whole entry): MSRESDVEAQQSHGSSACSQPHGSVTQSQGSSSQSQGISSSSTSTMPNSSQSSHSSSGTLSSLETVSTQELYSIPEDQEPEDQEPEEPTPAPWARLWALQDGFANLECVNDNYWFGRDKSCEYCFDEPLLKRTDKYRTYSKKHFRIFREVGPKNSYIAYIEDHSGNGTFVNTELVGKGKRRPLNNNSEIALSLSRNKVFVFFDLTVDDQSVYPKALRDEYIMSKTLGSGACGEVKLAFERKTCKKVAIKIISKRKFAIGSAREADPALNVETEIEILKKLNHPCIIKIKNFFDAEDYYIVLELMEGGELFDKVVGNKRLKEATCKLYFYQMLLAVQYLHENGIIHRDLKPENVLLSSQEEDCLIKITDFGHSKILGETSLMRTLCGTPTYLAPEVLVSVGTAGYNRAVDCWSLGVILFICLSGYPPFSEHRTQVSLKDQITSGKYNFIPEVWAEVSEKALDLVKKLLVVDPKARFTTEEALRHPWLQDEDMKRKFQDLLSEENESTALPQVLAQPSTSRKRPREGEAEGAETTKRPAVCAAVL
# CDK1/cyclinB(h), sequence (P06493 whole entry): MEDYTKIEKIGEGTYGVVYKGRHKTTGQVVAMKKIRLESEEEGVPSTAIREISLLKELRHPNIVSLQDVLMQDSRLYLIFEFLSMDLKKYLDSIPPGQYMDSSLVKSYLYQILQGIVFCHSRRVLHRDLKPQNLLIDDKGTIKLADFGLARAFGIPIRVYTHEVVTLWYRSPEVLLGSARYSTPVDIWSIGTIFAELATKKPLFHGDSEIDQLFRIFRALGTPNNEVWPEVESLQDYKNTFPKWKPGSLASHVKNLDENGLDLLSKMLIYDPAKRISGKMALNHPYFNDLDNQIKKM
# CDK1/cyclinB(h), sequence (P14635 whole entry partner): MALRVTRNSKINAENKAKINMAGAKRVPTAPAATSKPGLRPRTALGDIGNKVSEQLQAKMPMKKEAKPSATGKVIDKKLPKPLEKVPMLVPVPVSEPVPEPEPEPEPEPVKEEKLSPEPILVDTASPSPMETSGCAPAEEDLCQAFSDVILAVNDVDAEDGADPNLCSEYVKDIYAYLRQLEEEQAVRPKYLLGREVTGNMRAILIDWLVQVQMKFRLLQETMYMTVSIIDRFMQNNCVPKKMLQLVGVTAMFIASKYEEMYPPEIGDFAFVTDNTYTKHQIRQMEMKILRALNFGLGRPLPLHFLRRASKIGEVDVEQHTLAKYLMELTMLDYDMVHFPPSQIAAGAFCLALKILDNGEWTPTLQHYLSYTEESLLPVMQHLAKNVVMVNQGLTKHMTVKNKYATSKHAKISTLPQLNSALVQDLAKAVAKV
# PKCε(h), sequence (Q02156 whole entry): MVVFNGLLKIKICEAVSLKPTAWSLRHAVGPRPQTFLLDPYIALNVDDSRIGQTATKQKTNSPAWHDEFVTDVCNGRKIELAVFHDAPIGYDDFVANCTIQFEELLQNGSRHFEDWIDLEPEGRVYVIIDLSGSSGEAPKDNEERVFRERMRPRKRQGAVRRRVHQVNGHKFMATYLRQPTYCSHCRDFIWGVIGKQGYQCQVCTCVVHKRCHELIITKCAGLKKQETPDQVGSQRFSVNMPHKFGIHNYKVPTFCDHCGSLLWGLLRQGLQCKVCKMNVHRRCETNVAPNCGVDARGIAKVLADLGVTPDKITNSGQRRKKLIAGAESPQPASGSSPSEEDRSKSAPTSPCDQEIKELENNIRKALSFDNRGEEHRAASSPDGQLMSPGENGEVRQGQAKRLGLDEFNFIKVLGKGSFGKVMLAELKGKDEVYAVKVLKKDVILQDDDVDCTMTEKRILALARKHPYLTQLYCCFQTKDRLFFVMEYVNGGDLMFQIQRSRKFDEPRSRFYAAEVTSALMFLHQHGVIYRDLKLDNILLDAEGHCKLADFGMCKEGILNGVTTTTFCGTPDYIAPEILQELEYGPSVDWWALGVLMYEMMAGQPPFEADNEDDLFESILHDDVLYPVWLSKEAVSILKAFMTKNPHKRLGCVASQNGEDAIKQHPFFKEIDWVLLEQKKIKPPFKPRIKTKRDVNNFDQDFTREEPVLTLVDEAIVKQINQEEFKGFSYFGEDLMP
# MKK4(m), sequence (P47809 whole entry): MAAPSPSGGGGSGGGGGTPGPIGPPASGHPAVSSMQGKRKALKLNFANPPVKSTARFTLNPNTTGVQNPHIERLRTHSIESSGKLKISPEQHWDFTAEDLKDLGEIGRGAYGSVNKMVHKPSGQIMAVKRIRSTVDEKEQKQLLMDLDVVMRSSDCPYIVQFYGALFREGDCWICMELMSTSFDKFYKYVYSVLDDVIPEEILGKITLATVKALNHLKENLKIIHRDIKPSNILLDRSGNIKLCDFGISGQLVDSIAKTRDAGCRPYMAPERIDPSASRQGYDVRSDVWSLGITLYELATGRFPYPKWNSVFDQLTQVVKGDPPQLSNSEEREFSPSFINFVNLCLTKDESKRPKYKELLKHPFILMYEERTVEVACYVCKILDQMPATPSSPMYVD
remaining activity at 2.5 µM (CaMKIV(h)),remaining activity at 2.5 µM (CHK2(h)),remaining activity at 2.5 µM (CDK1/cyclinB(h)),remaining activity at 2.5 µM (Arg(h)),remaining activity at 2.5 µM (MKK4(m)),percent residual activity of CK1(y) (CK1(y)),remaining activity at 2.5 µM (PKCε(h)),SMILES
124%,62%,84%,46%,108%,78%,99%,CN1CCCC1CCNC(=O)c1cn2c3c(c(N4CCC(c5cnccn5)C4)c(F)cc3c1=O)Oc1cc3ccccc3cc1-2 (centres unmarked) [Compound A-1]
122%,99%,93%,94%,99%,77%,109%,CC(=O)N1CCN(c2ccc3c(=O)c(C(=O)NCCN4CCCC4)c4n(C)c5ccccc5n4c3n2)CC1 [Compound B-1]

# From patent US20070117770A1, “Human ribosomal DNA (rDNA) and ribosomal RNA (rRNA) nucleic acids and uses thereof” (Cylene Pharmaceuticals, Inc., priority 2005, published 2007)
